The values below come from patent US12091425B2 (AMGEN INC., priority 2016, dated 2024).

The target of assay [1] is T1, Mcl-1/Bim interaction, recombinant human Mcl-1 (171-327) (Homo sapiens, UniProt Q07820).
T1 construct: made in house
Description: Cell free Mcl-1: Bim Affinity Assay (Mcl-1 HTRF). It is filed as binding. Put shortly: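 Read-out is time-resolved FRET after overnight incubation, using a biotin-labelled peptide from human Bim (51-76) as the binding partner; IC50 was derived from competition curves.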
(TR-FRET usually uses a lanthanide donor and a delayed reading to cut background.)

For assay [2], the system named is OPM-2 human multiple myeloma cell line. Nature of the assay: Cell Viability Assay (OPM-2 10 FBS). The assay is classed as cell-based. The conditions noted are these: OPM-2 cells, CellTiter-Glo. An outline of the steps:
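Plated at 3000 cells/well in 10% FBS complete medium, the cells received a serial compound dilution series and incubated 16 h at 37 °C with 5% CO2. CellTiter-Glo was then added; IC50 values were fitted with a logistic 4-parameter model.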

Where [3] appears, read: TR-FRET, 0.1 nM Mcl-1 (171-327), 0.05 nM biotin-Bim (51-76).
Setting [4] is: Homo sapiens, OPM-2, 16 h, 16 h.
Where [5] appears, read: cell free Mcl-1:Bim TR-FRET, recombinant human Mcl-1 (171-327).

T1 sequence (Q07820 171-327): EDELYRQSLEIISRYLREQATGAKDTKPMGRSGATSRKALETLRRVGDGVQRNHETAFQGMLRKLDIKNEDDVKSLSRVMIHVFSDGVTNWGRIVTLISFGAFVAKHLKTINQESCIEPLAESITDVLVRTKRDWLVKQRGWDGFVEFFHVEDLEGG

Consider `C[C@@H]1C/C=C/[C@H](O)[C@@H]2CC[C@H]2CN2C[C@@]3(CCCc4cc(Cl)ccc43)COc3ccc(cc32)C(=O)NS(=O)(=O)N1C[C@@H]1CCCO1` (single isomer, unassigned) [Example 51], for which the results for the IC50 in assay [1] (setting [3]) and in assay [2] (setting [4]) were 5.59 nM and 1830 nM, respectively.
`COC[C@H](O)C[C@@H]1CC/C=C/[C@H](OC)[C@@H]2CC[C@H]2CN2C[C@@]3(CCCc4cc(Cl)ccc43)COc3ccc(cc32)C(=O)NS1(=O)=O` (single isomer, unassigned) [Example 652]: the IC50 was 2.4 nM in assay [1] (setting [5]) and 4460 nM in assay [2] (16 h).
For the compound `COCCN1CC/C=C/[C@H](O)[C@@H]2CC[C@H]2CN2C[C@@]3(CCCc4cc(Cl)ccc43)COc3ccc(cc32)C(=O)NS1(=O)=O` [Example 31, (1S,3′R,6′R,7′S,8′E)-6-chloro-7′-hydroxy-12′-(2-methoxyethyl)-3,4-dihydro-2H,15′H-spiro[naphthalene-1,22′-[20]oxa[13]thia[1,12,14]triazatetracyclo[14.7.2.0^3,6.0^19,24]pentacosa[8,16,18,24]tetraen]-15′-one 13′,13′-dioxide], the results for the IC50 in assay [1] (setting [3]) and in assay [2] (setting [4]) were 0.492 nM and 621 nM, respectively.
The matching figures for `C[C@@H]1[C@@H](C)C/C=C/[C@H](OCC(=O)O)[C@@H]2CC[C@H]2CN2C[C@@]3(CCCc4cc(Cl)ccc43)COc3ccc(cc32)C(=O)NS1(=O)=O` [Example 292, (((1S,3′R,6′R,7′S,8′E,11′S,12′R)-6-chloro-11′,12′-dimethyl-13′,13′-dioxido-15′-oxo-3,4-dihydro-2H-spiro[naphthalene-1,22′-[20]oxa[13]thia[1,14]diazatetracyclo[14.7.2.0^3,6.0^19,24]pentacosa [8,16,18,24]tetraen]-7′-yl)oxy)acetic acid]: 0.0929 nM and 1110 nM.
Regarding `COC(=O)C[C@H]1CC/C=C/[C@H](O)[C@@H]2CC[C@H]2CN2C[C@@]3(CCCc4cc(Cl)ccc43)COc3ccc(cc32)C(=O)NS1(=O)=O` [Example 620], the IC50 in assay [1] (setting [5]) was found to be 0.71 nM; in assay [2] (16 h) it was 4080 nM.
Regarding `C[C@H]1C/C=C\[C@H](O)[C@@H]2CC[C@H]2CN2C[C@@]3(CCCc4cc(Cl)ccc43)COc3ccc(cc32)C(=O)NS(=O)(=O)[C@H]1C[C@H]1CCCO1` (single isomer, unassigned) [Example 136], the values for the IC50 in assay [1] (setting [3]) and in assay [2] (setting [4]) were 0.259 nM and 130 nM, respectively.
For the compound `C[C@H]1C/C=C/[C@H](O)[C@@H]2CC[C@H]2CN2C[C@@]3(CCCc4cc(Cl)ccc43)COc3ccc(cc32)C(=O)NS(=O)(=O)[C@@H]1c1ccccc1` (single isomer, unassigned) [Example 653], the IC50 in assay [1] (setting [5]) was 0.722 nM; in assay [2] (16 h), 371 nM.
For the compound `Cc1nnc(CCC2CCC=CC(O)C3CCC3CN3CC4(CCCc5cc(Cl)ccc54)COc4ccc(cc43)C(=O)NS2(=O)=O)o1` (single isomer, unassigned) [Example 632], the IC50 is 0.187 nM in assay [1] (setting [5]) and 878 nM in assay [2] (setting [4]).
With `COC[C@@H]1C[C@@H](C)/C=C/[C@H](OC)[C@@H]2CC[C@H]2CN2C[C@@]3(CCCc4cc(Cl)ccc43)COc3ccc(cc32)C(=O)NS1(=O)=O` (single isomer, unassigned) [Example 473], the IC50 in assay [1] (setting [5]) was 0.369 nM; in assay [2] (16 h), 160 nM.
Turning to `COCC1CC(C)C=CC(O)C2CCC2CN2CC3(CCCc4cc(Cl)ccc43)COc3ccc(cc32)C(=O)NS1(=O)=O` (single isomer, unassigned) [Example 471], the IC50 was determined as 0.188 nM in assay [1] (setting [5]) and 141 nM in assay [2] (setting [4]).
Take `COCCO[C@H]1/C=C/C[C@H](C)[C@H](c2ccccc2)S(=O)(=O)NC(=O)c2ccc3c(c2)N(C[C@@H]2CC[C@H]21)C[C@@]1(CCCc2cc(Cl)ccc21)CO3` (single isomer, unassigned) [Example 670]: the IC50 amounted to 2.48 nM in assay [1] (setting [5]) and 1000 nM in assay [2] (16 h).
For `C[C@@H]1[C@@H](C)C/C=C/[C@H](OCCN(C)c2ccccn2)[C@@H]2CC[C@H]2CN2C[C@@]3(CCCc4cc(Cl)ccc43)COc3ccc(cc32)C(=O)NS1(=O)=O` [Example 13, (1S,3′R,6′R,7′S,8′E,11′S,12′R)-6-chloro-11′,12′-dimethyl-7′-(2-(methyl(2-pyridinyl)amino)ethoxy)-3,4-dihydro-2H,15′H-spiro[naphthalene-1,22′-[20]oxa[13]thia[1,14]diazatetracyclo[14.7.2.0˜3,6˜.0˜19,24˜]pentacosa[8,16,18,24]tetraen]-15′-one 13′,13′-dioxide], the IC50 in assay [1] (setting [3]) was 0.685 nM; in assay [2] (setting [4]), 312 nM.
`C[C@@H]1[C@@H](C)C/C=C/[C@H](OCCN2CC(F)C2)[C@@H]2CC[C@H]2CN2C[C@@]3(CCCc4cc(Cl)ccc43)COc3ccc(cc32)C(=O)NS1(=O)=O` [Example 532, (1S,3′R,6′R,7′S,8′E,11′S,12′R)-6-chloro-7′-(2-(3-fluoro-1-azetidinyl)ethoxy)-11′,12′-dimethyl-3,4-dihydro-2H,15′H-spiro[naphthalene-1,22′-[20]oxa[13]thia[1,14]diazatetracyclo[14.7.2.0^3,6.0^19,24]pentacosa [8,16,18,24]tetraen]-15′-one 13′,13′-dioxide]: the figures for the IC50 in assay [1] (setting [5]) and in assay [2] (setting [4]) were 0.427 nM and 156 nM, respectively.
For `COC[C@@H](O)C[C@@H]1[C@@H](C)C/C=C/[C@H](OC)[C@@H]2CC[C@H]2CN2C[C@@]3(CCCc4cc(Cl)ccc43)COc3ccc(cc32)C(=O)NS1(=O)=O` (single isomer, unassigned) [Example 679], the IC50 in assay [1] (setting [5]) was 0.429 nM; in assay [2] (16 h) it was 205 nM.
Regarding `COCCOC1C=CCC2COCCC2S(=O)(=O)NC(=O)c2ccc3c(c2)N(CC2CCC21)CC1(CCCc2cc(Cl)ccc21)CO3` (single isomer, unassigned) [Example 322], the figures for the 50% inhibitory concentration (IC50) in assay [1] (setting [3]) and in assay [2] (setting [4]) were 0.4 nM and 123 nM, respectively.
The matching figures for `C[C@@H]1CC/C=C/[C@H](O[C@H]2CCOC2=O)[C@@H]2CC[C@H]2CN2C[C@@]3(CCCc4cc(Cl)ccc43)COc3ccc(cc32)C(=O)NS1(=O)=O` [Example 413]: 0.358 nM and 374 nM.
With `O=C1NS(=O)(=O)[C@H](c2ccccn2)CC/C=C/[C@H](O)[C@@H]2CC[C@H]2CN2C[C@@]3(CCCc4cc(Cl)ccc43)COc3ccc1cc32` (single isomer, unassigned) [Example 692], the IC50 is 0.6 nM in assay [1] (setting [5]) and 1520 nM in assay [2] (16 h).
On the same counts, the results for `COC[C@@H](O)C[C@@H]1CC/C=C/[C@H](OC)[C@@H]2CC[C@H]2CN2C[C@@]3(CCCc4cc(Cl)ccc43)COc3ccc(cc32)C(=O)NS1(=O)=O` (single isomer, unassigned) [Example 659] are 3.37 nM and 10900 nM.
Take `CO[C@H]1C[C@@H](N2[C@@H](C)C/C=C\[C@H](O)[C@@H]3CC[C@H]3CN3C[C@@]4(CCCc5cc(Cl)ccc54)COc4ccc(cc43)C(=O)NS2(=O)=O)C1` [Example 78, (1S,3′R,6′R,7′S,8′Z,11′S)-6-chloro-7′-hydroxy-12′-(cis-3-methoxycyclobutyl)-11′-methyl-3,4-dihydro-2H,15′H-spiro[naphthalene-1,22′-[20]oxa[13]thia[1,12,14]triazatetracyclo[14.7.2.0^3,6.0^19,24]pentacosa[8,16,18,24]tetraen]-15′-one 13′,13′-dioxide]: the figures for the IC50 in assay [1] (setting [3]) and in assay [2] (setting [4]) were 1.45 nM and 587 nM, respectively.
With `CO[C@H]1/C=C/C[C@@H]2COC[C@H]2S(=O)(=O)NC(=O)c2ccc3c(c2)N(C[C@@H]2CC[C@H]21)C[C@@]1(CCCc2cc(Cl)ccc21)CO3` (single isomer, unassigned) [Example 1032], the half-inhibitory concentration (IC50) in assay [1] (setting [3]) amounted to 0.422 nM; in assay [2] (16 h incubation), 575 nM.
Take `COCC[C@@H]1[C@@H](C)C/C=C/[C@H](OCCN2CCOCC2)[C@@H]2CC[C@H]2CN2C[C@@]3(CCCc4cc(Cl)ccc43)COc3ccc(cc32)C(=O)NS1(=O)=O` (single isomer, unassigned) [Example 398]: the IC50 came to 0.233 nM in assay [1] (setting [3]) and 88.3 nM in assay [2] (16 h).
In the case of `CC(=O)O[C@@H]1/C=C/C[C@H](C)[C@@H](C)S(=O)(=O)NC(=O)c2ccc3c(c2)N(C[C@@H]2CC[C@H]21)C[C@@]1(CCCc2cc(Cl)ccc21)CO3` [Example 1070, (1S,3′R,6′R,7′R,8′E,11′S,12′R)-6-chloro-11′,12′-dimethyl-13′,13′-dioxido-15′-oxo-3,4-dihydro-2H-spiro[naphthalene-1,22′-[20]oxa[13]thia[1,14]diazatetracyclo[14.7.2.0^3,6.0^19,24]pentacosa [8,16,18,24]tetraen]-7′-yl acetate], the IC50 in assay [1] (setting [3]) was 1.07 nM; in assay [2] (Homo sapiens, OPM-2, 16 h, 16 h incubation), 1230 nM.
Consider `COC(=O)CC[C@]1(C)CC/C=C\[C@H](O)[C@@H]2CC[C@H]2CN2C[C@@]3(CCCc4cc(Cl)ccc43)COc3ccc(cc32)C(=O)NS1(=O)=O` (single isomer, unassigned) [Example 562], for which the IC50 was determined as 1.12 nM in assay [1] (setting [5]) and 986 nM in assay [2] (16 h).
Regarding `CC[C@@H]1C/C=C/[C@H](OCC(=O)OC)[C@@H]2CC[C@H]2CN2C[C@@]3(CCCc4cc(Cl)ccc43)COc3ccc(cc32)C(=O)NS(=O)(=O)C1` [Example 741, methyl (((1S,3′R,6′R,7′S,8′E,11′R)-6-chloro-11′-ethyl-13′,13′-dioxido-15′-oxo-3,4-dihydro-2H-spiro[naphthalene-1,22′-[20]oxa[13]thia [1,14]diazatetracyclo[14.7.2.0^3,6.0^19,24]pentacosa[8,16,18,24]tetraen]-7′-yl)oxy)acetate], the IC50 in assay [1] (setting [5]) was 13.5 nM; in assay [2] (setting [4]), 3110 nM.

A word on the IC50: it is the concentration needed to halve the response being measured.
